The values below come from patent US20260271927A1, “PESTICIDALLY ACTIVE BICYCLIC COMPOUNDS” (SYNGENTA CROP PROTECTION AG, priority 2023, published 2026).

What all share (type): in vivo
The subject of assay [1] is Chilo suppressalis (Striped Rice Stemborer). The assay is described as follows: Chilo suppressalis (striped rice stemborer), artificial diet in 24-well plates, L2 larvae. The conditions noted are these: 144 h, application rate of 200 ppm, 6 days after infestation, read-out: control in at least one of the three categories (mortality, anti-feedant effect, or growth inhibition). How it is done: 24-well microtiter plates with artificial diet were treated with aqueous test solutions prepared from 10′000 ppm DMSO stock solutions by pipetting. After drying, the plates were infested with L2 larvae (6-8 per well). The samples were assessed for mortality, anti-feeding effect, and growth inhibition in comparison to untreated samples 6 days after infestation. Control of Chilo suppressalis by a test sample is given when at least one of the categories mortality, anti-feedant effect, and growth inhibition is higher than the untreated sample.

The subject of assay [2] is Myzus persicae (Green Peach Aphid). As to the kind of experiment: Myzus persicae systemic activity, roots of pea seedlings in test solution. The conditions noted are these: 144 h, test rate of 24 ppm, 6 days after placing seedlings into test solutions. How it is done:
Roots of pea seedlings infested with an aphid population of mixed ages were placed directly into aqueous test solutions prepared from 10′000 DMSO stock solutions. The samples were assessed for mortality 6 days after placing seedlings into test solutions.

Assay [3] shares this test system. As to the kind of experiment: Myzus persicae feeding/contact activity, eggplant leaf discs. The settings on record: foliar, 144 h, application rate of 200 ppm, 6 days after infestation, read-out: growth inhibition. The procedure:
Eggplant leaf discs were placed onto agar in a 24-well microtiter plate and sprayed with aqueous test solutions prepared from 10′000 ppm DMSO stock solutions. After drying, the leaf discs were infested with an aphid population of mixed ages. The samples were assessed for mortality 6 days after infestation.

Assay [4] concerns Diabrotica balteata (Corn Root Worm). As to the kind of experiment: Diabrotica balteata (corn root worm), sprayed maize sprouts, L2 larvae. The conditions noted are these: 96 h, application rate of 200 ppm, 4 days after infestation, read-out: control in at least one of the two categories (mortality or growth inhibition). How it is done:
Maize sprouts placed onto an agar layer in 24-well microtiter plates were treated with aqueous test solutions prepared from 10′000 ppm DMSO stock solutions by spraying. After drying, the plates were infested with L2 larvae (6 to 10 per well). The samples were assessed for mortality and growth inhibition in comparison to untreated samples 4 days after infestation.

As to `CN(C)C(=O)[C@H]1[C@@H]2OCCO[C@@H]21` [Compound P10, (1α,6α,7α)-N,N-dimethyl-2,5-dioxabicyclo[4.1.0]heptane-7-carboxamide], in assay [1], the percent control (mortality, anti-feedant effect or growth inhibition) at 200 ppm was at least 80%.
Regarding `O=C(NOCc1c(F)cccc1F)[C@H]1[C@@H]2OCCO[C@@H]21` [Compound P14, (1α,6α,7α)-N-[(2,6-difluorophenyl)methoxy]-2,5-dioxabicyclo[4.1.0]heptane-7-carboxamide], the mortality at 24 ppm in assay [2] was at least 80%. The mortality at 200 ppm in assay [3] was at least 80%. The percent control (mortality, anti-feedant effect or growth inhibition) at 200 ppm in assay [1] was at least 80%.
For the compound `Cc1cccc(NC(=O)[C@H]2[C@@H]3OCCO[C@@H]32)c1` [Compound P16, (1α,6α,7α)-N-(m-tolyl)-2,5-dioxabicyclo[4.1.0]heptane-7-carboxamide], the mortality at 200 ppm in assay [3] is at least 80%.
For `Cc1ccc(NC(=O)[C@H]2[C@@H]3OCCO[C@@H]32)c(F)c1` [Compound P17, (1α,6α,7α)-N-(2-fluoro-4-methyl-phenyl)-2,5-dioxabicyclo[4.1.0]heptane-7-carboxamide], in assay [4], the percent control (mortality or growth inhibition) at 200 ppm was at least 80%.
For the compound `Cc1ccc(NC(=O)[C@H]2[C@@H]3OCCO[C@@H]32)cc1` [Compound P18, (1α,6α,7α)-N-(p-tolyl)-2,5-dioxabicyclo[4.1.0]heptane-7-carboxamide], the percent control (mortality or growth inhibition) at 200 ppm in assay [4] was at least 80%. Moreover, the mortality at 24 ppm in assay [2] is at least 80%.
`O=C(NCc1cc(Cl)ccc1Cl)[C@H]1[C@@H]2OCCO[C@@H]21` [Compound P19, (1α,6α,7α)-N-[(2,5-dichlorophenyl)methyl]-2,5-dioxabicyclo[4.1.0]heptane-7-carboxamide]: in assay [4], the percent control (mortality or growth inhibition) at 200 ppm is at least 80%.
As to `Cc1ccccc1NC(=O)[C@H]1[C@@H]2OCCO[C@@H]21` [Compound P29, (1α,6α,7α)-N-(o-tolyl)-2,5-dioxabicyclo[4.1.0]heptane-7-carboxamide], the percent control (mortality or growth inhibition) at 200 ppm in assay [4] is at least 80%. For the same compound, the mortality at 24 ppm in assay [2] was at least 80%.
As for `Cn1ccc(NC(=O)[C@H]2[C@@H]3OCCO[C@@H]32)n1` [Compound P30, (1α,6α,7α)-N-(1-methylpyrazol-3-yl)-2,5-dioxabicyclo[4.1.0]heptane-7-carboxamide], the percent control (mortality or growth inhibition) at 200 ppm in assay [4] was at least 80%. This compound also gave a mortality at 24 ppm in assay [2] of at least 80%.
For `O=C(Nc1cc2ccccn2n1)[C@H]1[C@@H]2OCCO[C@@H]21` [Compound P33], the percent control (mortality or growth inhibition) at 200 ppm in assay [4] is at least 80%.
Take `Cn1cc(NC(=O)[C@H]2[C@@H]3OCCO[C@@H]32)cn1` [Compound P36, (1α,6α,7α)-N-(1-methylpyrazol-4-yl)-2,5-dioxabicyclo[4.1.0]heptane-7-carboxamide]: the percent control (mortality or growth inhibition) at 200 ppm in assay [4] was at least 80%. Moreover, in assay [2], the mortality at 24 ppm is at least 80%. For the same compound, the mortality at 200 ppm in assay [3] was at least 80%.
In assay [2], `O=C(NC1CCOCC1)[C@H]1[C@@H]2OCCO[C@@H]21` [Compound P37, (1α,6α,7α)-N-tetrahydropyran-4-yl-2,5-dioxabicyclo[4.1.0]heptane-7-carboxamide] yielded a mortality at 24 ppm of at least 80%.
Consider `Cn1nccc1NC(=O)[C@H]1[C@@H]2OCCO[C@@H]21` [Compound P38, (1α,6α,7α)-N-(2-methylpyrazol-3-yl)-2,5-dioxabicyclo[4.1.0]heptane-7-carboxamide], for which the percent control (mortality or growth inhibition) at 200 ppm in assay [4] was at least 80%.
Still for that read-out and setting: the value for `CCC(NC(=O)[C@H]1[C@@H]2OCCO[C@@H]21)c1ccc(Cl)cc1` (stereo partly drawn) [Compound P40, (1α,6α,7α)-N-[1-(4-chlorophenyl)propyl]-2,5-dioxabicyclo[4.1.0]heptane-7-carboxamide] was at least 80%.
As to `O=C(NCc1ccccc1)[C@H]1[C@@H]2OCCO[C@@H]21` [Compound P41, (1α,6α,7α)-N-benzyl-2,5-dioxabicyclo[4.1.0]heptane-7-carboxamide], the percent control (mortality, anti-feedant effect or growth inhibition) at 200 ppm in assay [1] is at least 80%.
